Measurements reported in US20250092395A1, “A GLUN2D INHIBITOR FOR USE IN THE TREATMENT OR RELAPSE PREVENTION OF A DEPRESSIVE EPISODE” (priority 2022, published 2025).
Entries after “also recorded” stand apart in the source; their conditions may differ. Where a name gives a salt, the structure may show the parent alone.

Tests used:
[1] = tested on: CA3-CA1 synapse in hippocampal brain slices of CDM mice; test: aLTP/aLTD inducibility in hippocampal brain slices of CDM mice after in vivo treatment; conditions: for stress-induced LTP blockade, reversal: NAB-14 in vivo
Procedure: Animals were preoxygenated in a 100% oxygen atmosphere for 5 min before cervical dislocation and decapitated according to national and institutional guidelines. Transverse 300 […] were cut from hippocampus with a Vibratome (VT1200, Leica, Japan). Slices were prepared in artificial cerebrospinal fluid (ACSF) containing (in mmol/I): 125 NaCl, 25 NaHCO3, 1.25 NaH2PO4, 2.5 KCL, 1 MgCl2, 27 Glucose, 2 CaCl2) bubbled with carbogen (95% O2, 5% CO2).
(§1) After 20 min resting time at 35° C., slices were kept at room temperature in aCSF and transferred into the recording chamber (volume approx. 2-3 ml) and continuously superfused with aCSF (rate approx. 5-10 ml/min-). Differential interference contrast video microscopy was used to identify location of CA1 pyramidal neurons (Zeiss Axioskop 2 FS plus, Zeiss Microscopy, Germany). Beside optical identification neurons were classified according to their characteristic firing frequency adaptation to long depolarising current pulses. Borosilicate glass tubes (2.0 mm outer diameter, 0.5 mm wall thickness; Hilgenberg, Germany) were used to pull patch pipettes. Pipettes with a resistance of 5-10 MΩ were used and series resistance of 10-50 MΩ was compensated by bridge balance. Patch pipettes were filled with an internal solution containing (in mM) for EPSP-measurements: 132K-gluconate, 20KCL, 2MgCl2, 10Hepes, 0.1EGTA, 4 Na2ATP, 0.3NaGTP. PH was adjusted to 7.2 with KOH. For current measurements: 135Csgluconate, 2CsCl, 5 QX314, 10 Hepes, 10EGTA, 2MgCl2, 2Na2ATP, 2TEACI, pH was adjusted to 7.2 with HCl. Osmolarity (280-300 mosmol/1) was controlled at the beginning of each experimental day with Osmomat (Gonotec GmbH, Germany).
A stimulation pipette (patch pipette with 1-3 MΩ resistance when filled with internal solution) was placed superficially in the stratum radiatum of the CA1 region in approximately […] distance to the pyramidal cell layer. Subthreshold excitatory postsynaptic potentials (EPSPs, 2 7 mV) were evoked by Schaffer collateral stimulation with voltage pulses of 10-80 V (frequency of 0.1 Hz, duration of 200 μs) using a stimulus isolator (Model 2100 Isolated pulse stimulator, Carlsborg, U.S.A.). Resting membrane potentials were between −75 and −65 mV and holding potential was −70 mV. 50 ms current test pulses (leading to 5-10 mV hyperpolarization) were applied to control input and series resistances after every 10th EPSP. EPSPs were combined with APs triggered by short (3 ms) current application of 900 pA via the patch-clamp electrode. EPC-10 amplifiers (HEKA, Germany) were used and signals were filtered at 5 kHz. Patchmaster NEXT software (Version 1.2, HEKA, Germany) was used for data acquisition and experiments were performed at room temperature.
aLTP: Five EPSPs and five postsynaptic APs were paired at 100 Hz with a 5 ms delay (AP after EPSP). Five of these bursts of synchronized EPSP→AP pairs were applied at theta frequency (5 Hz), followed by an interval of 10 sec and 4 more theta blocks, resulting in 125 EPSP/AP pairings.
aLTD: 360 postsynaptic APs were pared with 360 EPSPs with a delay of 20-30 ms between each AP/EPSP pairing at a frequency of 1 Hz. 1 Hz LTD: 600 EPSPs were elicited at a frequency of 1 Hz whilst CA1 pyramidal cell membrane potential was hold at −60 mV.
Long-term plasticity or molecular analyses were assessed as described above after the induction phase of the CDM and the specific treatment.
EPSP measurement: For baseline measurement, the mean amplitudes of 30 consecutive EPSPs before the induction protocol were calculated. 25 min after LTP induction the mean amplitude of 30 consecutive EPSPs was calculated and compared to the baseline of the same measurement. Changes of EPSP amplitudes were expressed as percentages of the baseline measurement and analysed for each experimental group applying a two-tailed Wilcoxon test. The differences between separate experimental groups were assessed using the Mann-Whitney test, not assuming normal distribution. […]

[2] = target: recombinant GluN2D-containing receptors (Rattus norvegicus, UniProt Q62645); conditions: recombinant GluN2D-containing receptors expressed in mammalian cells; cited from earlier work
Chain of recombinant GluN2D-containing receptors (Q62645 28-1323, other chains not shown): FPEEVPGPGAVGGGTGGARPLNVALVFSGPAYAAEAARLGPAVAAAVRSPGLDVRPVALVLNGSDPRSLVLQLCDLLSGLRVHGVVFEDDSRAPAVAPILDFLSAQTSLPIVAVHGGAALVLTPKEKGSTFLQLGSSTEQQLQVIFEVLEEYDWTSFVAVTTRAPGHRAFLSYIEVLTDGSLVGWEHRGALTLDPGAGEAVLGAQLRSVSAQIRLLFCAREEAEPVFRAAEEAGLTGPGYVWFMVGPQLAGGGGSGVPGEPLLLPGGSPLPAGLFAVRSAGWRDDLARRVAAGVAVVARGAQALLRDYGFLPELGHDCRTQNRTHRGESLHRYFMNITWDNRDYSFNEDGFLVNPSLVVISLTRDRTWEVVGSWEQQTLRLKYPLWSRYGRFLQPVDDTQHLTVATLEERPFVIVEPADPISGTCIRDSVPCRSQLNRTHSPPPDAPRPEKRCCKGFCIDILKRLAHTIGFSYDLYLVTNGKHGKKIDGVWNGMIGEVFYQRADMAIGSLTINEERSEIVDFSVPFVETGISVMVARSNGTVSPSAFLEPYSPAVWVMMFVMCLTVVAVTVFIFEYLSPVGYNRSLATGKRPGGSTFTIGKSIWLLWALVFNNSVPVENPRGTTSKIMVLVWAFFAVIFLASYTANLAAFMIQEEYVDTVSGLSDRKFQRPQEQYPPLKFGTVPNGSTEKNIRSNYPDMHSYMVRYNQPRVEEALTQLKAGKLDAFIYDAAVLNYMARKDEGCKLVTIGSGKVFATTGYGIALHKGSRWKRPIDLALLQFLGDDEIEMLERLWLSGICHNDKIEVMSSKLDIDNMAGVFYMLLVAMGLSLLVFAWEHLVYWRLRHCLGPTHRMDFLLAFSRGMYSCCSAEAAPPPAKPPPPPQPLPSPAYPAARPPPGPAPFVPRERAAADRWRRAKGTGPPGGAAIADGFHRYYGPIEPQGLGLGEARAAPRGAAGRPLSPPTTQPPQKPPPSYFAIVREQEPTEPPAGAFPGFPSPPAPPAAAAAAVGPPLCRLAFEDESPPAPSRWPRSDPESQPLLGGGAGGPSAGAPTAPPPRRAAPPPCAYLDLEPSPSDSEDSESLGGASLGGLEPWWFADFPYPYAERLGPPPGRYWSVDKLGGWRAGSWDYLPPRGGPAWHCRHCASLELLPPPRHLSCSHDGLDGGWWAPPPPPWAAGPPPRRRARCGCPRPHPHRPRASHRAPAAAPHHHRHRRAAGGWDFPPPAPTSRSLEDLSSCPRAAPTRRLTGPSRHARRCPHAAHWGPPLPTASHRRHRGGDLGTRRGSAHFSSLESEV

[3] = tested on: mice subjected to the chronic despair model (CDM); test: Chronic despair model (CDM) swim test, immobility time; type: in vivo; conditions: CDM mice, test day
Procedure: Induction phase: Mice were forced to swim in a glass cylinder (0 26 cm, 60 cm high) filled to 25 cm with 25° C. warm water for 10 min on 5 consecutive days. After the swimming, the animals were kept in their cages for two days before treatment and experiment readout was performed. The immobility time was measured in each session.
Behavioral Readout: After the treatment intervention, animals were either tested in an additional swim session (test day) to measure immobility time or tested in the InteliCage using the Nose-pokes sucrose preference test. For the assessment of the immobility time, mice were videotaped and two independent raters who were blinded to the experimental group analyzed the videos. Immobility time was defined as the cumulative time that the animals spend stationary with only enough movements of the tails or the forepaws to keep the head above the water surface. No distance is actively travelled except for passive floating, no directed movement of the front paws observed and the body of the animal mostly oriented parallel to the walls of the cylinder.

[4] = tested on: SOM-dependent feedback loop, CA1 PCs; test: Feedback loop-activating protocol (FLAP) in CA1 PCs; type: cell-based, mice
[5] = Side effects in in vivo experiments; parameters: species or system mice
[6] = tested on: NMDAR currents in somatostatin positive Interneurons (SOM); test: NMDAR currents in voltage-clamp recordings, SOM interneurons; conditions: +40 mV, CNQX, bath application 10 μM
[7] = tested on: NMDAR currents in CA1 pyramidal cells; test: NMDAR currents in voltage-clamp recordings, CA1 pyramidal cells; type: cell-based, mice; conditions: +40 mV, CNQX, bath application 10 μM
Procedure: as §1

[8] = R,S-ketamine injected shortly before each swim session in the CDM

SMILES | stress-induced LTP blockade, reversal ([1]; CDM mice, high dose: 10 mg/kg, 10 μM, 10 mg/kg) | stress-induced LTP blockade, reversal ([1]; CDM mice, high dose: 10 mg/kg, 10 μM, listed as NAB, 10 mg/kg) | stress-induced LTP blockade, reversal ([1]; CDM mice, low dose: 5 mg/kg, 5 μM) | EPSP slope and decay changes found in CDM ([1]; CDM mice, previous NAB-14 treatment) | IC50 [2] | immobility time ([3]; injection of NAB-14 (5/10 μM as printed)) | EPSP amplitude in the absence of AP bursts [4] | side effects [5] | amplitude of NMDAR currents in SOM interneurons [6] | amplitude of NMDAR currents in CA1 pyramidal cells [7] | stress-induced facilitation of LTD (aLTD, EPSP amplitude min 25 to 30) ([1]; CDM mice, R,S-ketamine injection i.p. after CDM induction, hydrochloride) | stress-induced blockade of LTP inducibility (aLTP, EPSP amplitude min 25 to 30) ([1]; CDM mice, single R,S-ketamine injection i.p. after CDM induction, hydrochloride) | stress-induced aLTD facilitation [1, 8] | stress-induced aLTP blockade [1, 8] | immobility time ([3]; 10 mg/kg R,S-ketamine intraperitoneal, vs control) | amplitude of NMDAR currents in SOM interneurons ([6]; hydrochloride) | amplitude of NMDAR currents in SOM interneurons ([6]; listed as Ketamine, hydrochloride) | amplitude of NMDAR currents in CA1 pyramidal cells ([7]; hydrochloride) | amplitude of NMDAR currents in CA1 pyramidal cells ([7]; listed as R,S-Ketamine, hydrochloride)
CCN(CC)C(=O)Oc1ccc(C(=O)Nc2cccc3cc[nH]c23)cc1 [NAB-14] | completely; also recorded: fully reversed | fully rehabilitated LTP inducibility | partially | effectively be reversed; also recorded: completely reversing slope increase and decay changes | 580 nM | significantly reduced | neither NAB14 nor diazepam wash-in significantly altered the EPSP amplitude; also recorded: no significant pre/post changes | did not show side effects | significantly reduced; also recorded: reduce the amplitude of NMDAR currents in SOMs | no relevant NMDAR reduction |  |  |  |  |  |  |  |  | 
CNC1(c2ccccc2Cl)CCCCC1=O (stereo not shown) [R,S-ketamine, R,S-Ketamine hydrochloride] |  |  |  |  |  |  |  |  |  |  | fully restored; also recorded: reversed this inducibility | fully restored; also recorded: completely reestablishing stress-induced changes | weaker effect | prevented the stress-induced aLTP blockade | significantly reduced | significantly stronger than in CA1 pyramidal cells; also recorded: significantly more pronounced in SOMs than in PCs | significantly more pronounced inhibitory effect | reduced the amplitude | significantly blocking NMDAR currents in CA1 cells
